According to patent US20260262643A1, “HERBICIDAL BENZOXAZINES” (FMC CORPORATION, priority 2022, published 2026):

What was measured:
barnyardgrass [1] = assay: Test A preemergence; type: in vivo, Echinochloa crusgalli; conditions: visual injury after 10 days, 0 to 100 scale, 0 is no effect, 100 is complete control
How it was run: (§1)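 Plants were grown in loam and sand and treated preemergence or postemergence (one- to two-leaf stage, 2–10 cm) with compound in solvent plus surfactant. Response was scored against untreated controls after 10 greenhouse days, where 0 means no effect and 100 complete control.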

blackgrass [2] = assay: Test A preemergence; type: in vivo, Alopecurus myosuroides; conditions: visual injury after 10 days, 0 to 100 scale, 0 is no effect, 100 is complete control
How it was run: as §1

corn [3] = assay: Test A preemergence; type: in vivo, Zea mays; conditions: visual injury after 10 days, 0 to 100 scale, 0 is no effect, 100 is complete control
How it was run: as §1

foxtail, giant [4] = assay: Test A preemergence; type: in vivo, Setaria faberi; conditions: visual injury after 10 days, 0 to 100 scale, 0 is no effect, 100 is complete control
How it was run: as §1

kochia [5] = assay: Test A preemergence; type: in vivo, Bassia scoparia; conditions: visual injury after 10 days, 0 to 100 scale, 0 is no effect, 100 is complete control
How it was run: as §1

oat, wild [6] = assay: Test A preemergence; type: in vivo, Avena fatua; conditions: visual injury after 10 days, 0 to 100 scale, 0 is no effect, 100 is complete control
How it was run: as §1

pigweed, palmer [7] = assay: Test A preemergence; type: in vivo, Amaranthus palmeri; conditions: visual injury after 10 days, 0 to 100 scale, 0 is no effect, 100 is complete control
How it was run: as §1

ragweed [8] = assay: Test A preemergence; type: in vivo, Ambrosia artemisiifolia; conditions: visual injury after 10 days, 0 to 100 scale, 0 is no effect, 100 is complete control
How it was run: as §1

ryegrass, Italian [9] = assay: Test A preemergence; type: in vivo, Lolium multiflorum; conditions: visual injury after 10 days, 0 to 100 scale, 0 is no effect, 100 is complete control
How it was run: as §1

soybean [10] = assay: Test A preemergence; type: in vivo, Glycine max; conditions: visual injury after 10 days, 0 to 100 scale, 0 is no effect, 100 is complete control
How it was run: as §1

wheat [11] = assay: Test A preemergence; type: in vivo, Triticum aestivum; conditions: visual injury after 10 days, 0 to 100 scale, 0 is no effect, 100 is complete control
How it was run: as §1

barnyardgrass [12] = assay: Test A postemergence; type: in vivo, Echinochloa crusgalli; conditions: postemergence, 10 days
How it was run: as §1

blackgrass [13] = assay: Test A postemergence; type: in vivo, Alopecurus myosuroides; conditions: postemergence, 10 days
How it was run: as §1

corn [14] = assay: Test A postemergence; type: in vivo, Zea mays; conditions: postemergence, 10 days
How it was run: as §1

foxtail, giant [15] = assay: Test A postemergence; type: in vivo, Setaria faberi; conditions: postemergence, 10 days
How it was run: as §1

kochia [16] = assay: Test A postemergence; type: in vivo, Bassia scoparia; conditions: postemergence, 10 days
How it was run: as §1

oat, wild [17] = assay: Test A postemergence; type: in vivo, Avena fatua; conditions: postemergence, 10 days
How it was run: as §1

pigweed, palmer [18] = assay: Test A postemergence; type: in vivo, Amaranthus palmeri; conditions: postemergence, 10 days
How it was run: as §1

ragweed [19] = assay: Test A postemergence; type: in vivo, Ambrosia artemisiifolia; conditions: postemergence, 10 days
How it was run: as §1

ryegrass, Italian [20] = assay: Test A postemergence; type: in vivo, Lolium multiflorum; conditions: postemergence, 10 days
How it was run: as §1

soybean [21] = assay: Test A postemergence; type: in vivo, Glycine max; conditions: postemergence, 10 days
How it was run: as §1

wheat [22] = assay: Test A postemergence; type: in vivo, Triticum aestivum; conditions: postemergence, 10 days
How it was run: as §1

galium = assay: Test A postemergence; type: in vivo, Galium aparine; conditions: postemergence, 10 days
How it was run: as §1

horseweed = assay: Test A postemergence; type: in vivo, Erigeron canadensis; conditions: postemergence, 10 days
How it was run: as §1

barnyardgrass [23] = assay: Test B flooded paddy test; type: in vivo, Echinochloa crus-galli; conditions: 250 g ai/ha, Flood, 13 days, 0 to 100 scale (0 no effect, 100 complete control)
How it was run: (§2)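 2-leaf stage; pots flooded 3 cm over soil; compound dosed into paddy water; depth kept constant. Greenhouse, 13 d. Visual rating vs controls, 0 (no effect)–100 (complete control). Dash = no result.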

ducksalad = assay: Test B flooded paddy test; type: in vivo, Heteranthera limosa; conditions: 250 g ai/ha, Flood, 13 days, 0 to 100 scale (0 no effect, 100 complete control)
How it was run: as §2

rice = assay: Test B flooded paddy test; type: in vivo, Oryza sativa; conditions: 250 g ai/ha, Flood, 13 days, 0 to 100 scale (0 no effect, 100 complete control)
How it was run: as §2

sedge, umbrella = assay: Test B flooded paddy test; type: in vivo, Cyperus difformis; conditions: 250 g ai/ha, Flood, 13 days, 0 to 100 scale (0 no effect, 100 complete control)
How it was run: as §2

[24] = 125 g ai/ha, 0 to 100 scale, 0 no effect, 100 complete control
[25] = 500 g ai/ha, visual injury, 0 to 100 scale (0 no effect, 100 complete control)

COCCc1ncn(-c2cccc(C(=O)N3C[C@H](C)Oc4c(C)cccc43)c2)n1 [Compound 113]
Plant response rating, Barnyardgrass (barnyardgrass [1]; 125 g ai/ha): 90 | Plant response rating, Barnyardgrass (barnyardgrass [1]; 500 g ai/ha): 100 | Plant response rating, Blackgrass (blackgrass [2]; 125 g ai/ha): 70 | Plant response rating, Blackgrass (blackgrass [2]; 500 g ai/ha): 90 | Plant response rating, Corn (corn [3]; 125 g ai/ha): 20 | Plant response rating, Corn (corn [3]; 500 g ai/ha): 90 | Plant response rating, Foxtail, Giant (foxtail, giant [4]; 125 g ai/ha): 100 | Plant response rating, Foxtail, Giant (foxtail, giant [4]; 500 g ai/ha): 100 | Plant response rating, Kochia (kochia [5]; 125 g ai/ha): 60 | Plant response rating, Kochia (kochia [5]; 500 g ai/ha): 100 | Plant response rating, Oat, Wild (oat, wild [6]; 125 g ai/ha): 80 | Plant response rating, Oat, Wild (oat, wild [6]; 500 g ai/ha): 90 | Plant response rating, Pigweed, Palmer (pigweed, palmer [7]; 125 g ai/ha): 90 | Plant response rating, Pigweed, Palmer (pigweed, palmer [7]; 500 g ai/ha): 100 | Plant response rating, Ragweed (ragweed [8]; 125 g ai/ha): 0 | Plant response rating, Ragweed (ragweed [8]; 500 g ai/ha): 70 | Plant response rating, Ryegrass, Italian (ryegrass, Italian [9]; 125 g ai/ha): 90 | Plant response rating, Ryegrass, Italian (ryegrass, Italian [9]; 500 g ai/ha): 100 | Plant response rating, Soybean (soybean [10]; 125 g ai/ha): 30 | Plant response rating, Soybean (soybean [10]; 500 g ai/ha): 80 | Plant response rating, Wheat (wheat [11]; 125 g ai/ha): 80 | Plant response rating, Wheat (wheat [11]; 500 g ai/ha): 90 | Barnyardgrass plant response rating (barnyardgrass [12]; [24]): 60 | Plant response rating, Barnyardgrass (barnyardgrass [12]; [25]): 90 | Blackgrass plant response rating (blackgrass [13]; [24]): 80 | Plant response rating, Blackgrass (blackgrass [13]; [25]): 90 | Corn plant response rating (corn [14]; [24]): 90 | Plant response rating, Corn (corn [14]; [25]): 90 | Foxtail, Giant plant response rating (foxtail, giant [15]; [24]): 60 | Plant response rating, Foxtail, Giant (foxtail, giant [15]; [25]): 90 | Kochia plant response rating (kochia [16]; [24]): 40 | Plant response rating, Kochia (kochia [16]; [25]): 90 | Oat, Wild plant response rating (oat, wild [17]; [24]): 70 | Plant response rating, Oat, Wild (oat, wild [17]; [25]): 80 | Pigweed, Palmer plant response rating (pigweed, palmer [18]; [24]): 30 | Plant response rating, Pigweed, Palmer (pigweed, palmer [18]; [25]): 80 | Ragweed plant response rating (ragweed [19]; [24]): 50 | Plant response rating, Ragweed (ragweed [19]; [25]): 50 | Ryegrass, Italian plant response rating (ryegrass, Italian [20]; [24]): 50 | Plant response rating, Ryegrass, Italian (ryegrass, Italian [20]; [25]): 100 | Soybean plant response rating (soybean [21]; [24]): 100 | Plant response rating, Soybean (soybean [21]; [25]): 100 | Wheat plant response rating (wheat [22]; [24]): 50 | Plant response rating, Wheat (wheat [22]; [25]): 80 | Galium plant response rating (galium; [24]): 90 | Plant response rating, Galium (galium; [25]): 100 | Horseweed plant response rating (horseweed; [24]): 10 | Plant response rating, Horseweed (horseweed; [25]): 30 | Plant response rating, Barnyardgrass (barnyardgrass [23]): 45 | Plant response rating, Ducksalad (ducksalad): 65 | Plant response rating, Rice (rice): 0 | Plant response rating, Sedge, Umbrella (sedge, umbrella): 80
